From patent publication US6342517B1, “Potassium channel activators and their use” (Cambridge Bioclinical Limited, priority 1998, dated 2002)

How the values were obtained:
[1] = tested on: K+-stimulated isolated rat aorta; assay: K+-stimulated isolated rat aorta test; conditions: relaxation of contraction triggered by 25 mM KCl in rat aorta rings; asterisk (*) = low activity, only approximate value
Procedure: K^+-stimulated Isolated Rat Aorta Test
Male rats weighing about 300 g are killed painlessly by a blow to the neck and quickly exsanguinated. The thoracic cavity is opened and the aorta is carefully resectioned. It is placed in a Petri dish filled with Krebs solution, and surrounding connective and fatty tissue is removed. Two rings are prepared. The rings are each suspended in an organ bath, They are attached at the bottom to a hook and at the top to an electrical force transducer which is able to measure precisely contractions of 0-10 grams in strength. The measured contractions are amplified by means of a bridge amplifier and recorded with a thermal plotter.
The organ baths are filled with Krebs solution at 37° C. through which an O2/CO2 mixture is bubbled thoroughly and which has the following composition (mmol/1): NaCl 118.4; KCl 4.7; CaCl2 2.5; KH2PO4 1.2; MgSO4 1.2; NaHCO3 25; glucose 11.
The rings are stretched with a basic tone of about 0.5 g, After an equilibration time of about 30 minutes, the rings are caused to undergo contraction by depolarization (addition of 25 mM KCl to the organ bath). The contractions of the rings of aorta, triggered by the depolarization, quickly reach a plateau, As soon as this plateau is reached (“100% value”), the test substance is added to the organ bath, initially at low concentrations, for example 10^−8M, and then in increasing doses at regular intervals, until the contractions reduce or the final concentration of 10^−4M is reached. Each test substance is tested 2-4 times in this way.
For purposes of evaluation, the height of the contractions registered on the plotter paper is measured for each experiment after the action of each test concentration added. The IC50 value can be calculated in this way in relation to the original height of contractions before the addition of substance (100%).

[2] = tested on: NIH 3T3 fibroblasts; assay: Cell growth potentiation test (potentiation of mitogenic activity of fetal calf serum, EZ4U cellular proliferation assay); assay type: cell-based; conditions: for Cell growth potentiation relative to minoxidil at 100 μM (%): 0% = base concentration of FCS alone (5% or 3%), 100% = minoxidil at 100 μM; for Cell growth relative to FCS alone (%): 100% = same growth as base concentration of FCS alone
Excerpt: To test for activity in mammalian hair growth stimulation, an in vitro test of cell growth potentiation has been applied to a number of the compounds of the invention and prior art compounds 11901 and 11903. The test involves an assay of the call growth due to potentiation of the mitogenic activity of fetal calf serum (FCS). See WO97/14036. Details of materials, methods and results are as follows.
Tissue culture plastics were obtained from Beckton Dickinson (Cowley, Oxford, UK). NIH 3T3 fibroblasts were obtained from the European collection of animal cell cultures (Salisbury, Wilts, UK). Dulbecco's modified Eagle's medium (DMEM) was obtained from Flow Laboratories (Rickmansworth, Herts, UK). L-Glutamine and fetal calf serum were from Gibco (Paisley, UK).
The EZ4U cell proliferation assay kits were obtained from Cozart Bioscience Ltd (Abingdon, Oxon, UK). All other chemicals were obtained from Sigma Chemical Company Ltd. (Poole, Dorset, UK), and of the highest grade available.
NIH 3T3 fibroblasts were maintained in Dulbecco's modified Eagle's medium supplemented with 10% FCS and 2 mM L-glutamine in 150 cm^2 tissue culture flasks at 37° C. in an atmosphere of 5% CO2/95% air. Antibiotics were omitted. Medium was changed every 3 days, and passages were carried out twice a week before cells reached confluence. Prior to experiments, cells were passaged and plated out to give 10^4 cell/ml in 96-well multi-well plates. Cells were incubated for 24 hours with Dulbecco's modified Eagle's medium supplemented with 10% FCS to aid attachment. This was then removed and the experimental medium added.
Compounds were prepared following a general preparation protocol. This protocol consisted of taking a mass of compound, dissolving in the recommended solvent (40 μl) such that in the final preparation the concentrations of compound and solvent would be 100 μM and 0.1 respectively. In theory this volume was 40 μl, however for accuracy a mass larger than the required mass was dispensed and the solvent volume varied accordingly; only 40 μl of this solution was required for the next stage. The 40 μl volume was then added to a volume of FCS (1.2 ml), such that in the final preparation the concentration of FCS would be 3%. This solution was then added to DMEM containing L-glutamine (2 mM) (18.76 ml). The resulting solution of 20 ml volume was filter stabilised. This solution is now 200 μM in compound, 6% FCS and 0.2% solvent, and so was diluted 1:1 with the DMEM containing L-glutamine. This 100 μM stock could then be diluted serially to provide lower concentrations of the compound of interest. Solutions containing different ratios of compound and FCS were obtained in a similar manner.
This was performed, following the manufacturer's instructions, using an EZ4U assay kit, which is based upon the conversion of tetrazolium salt to coloured formazam derivatives by mitochondria (Hansen et al, 1989). Plates were read on a plate reader (Anthos Labtec HT2), using a measurement filter (450 nm), with a reference filter (620 nm) with a low Shaking density for 5 seconds prior to measurement. Control experiments were made against counting cells in a haemocytometer (sanders et al, 1996). There is some variance of results between different batches of FCS employed.
A series of cell growth potentiation/inhibition tests has been carried out in accordance with the procedure described above on some of the compounds of the invention, on compounds 11901 and 11903 and on minoxidil (a compound well known for its hair growth stimulation effects). Because of some variability of results with different batches of FCS, each compound was tested in a solution of a base concentration of FCS and was compared with minoxidil in a solution of the same base concentration of FCS and with a solution having the same base concentration of FCS alone (no additive), using the same FCS batch in order to provide standardised comparisons for that compound. […]

CC1=C(C)CC2(CC(C)(C)Oc3cc(S(=O)(=O)c4ccccc4)sc32)SC1 (stereo not drawn) [Compound 50121, 3′,6,6′,7-Tetrahydro-4′,5,5,5′-tetramethyl-2-(phenylsulphonyl)spiro[5H-thieno[3,2-b]pyran-7,2′-2H-thiopyran]]
melting point: 175 to 178 °C
IC50 [1]: > 100 µM
Cell growth potentiation relative to minoxidil at 100 μM (%) ([2]; Compound at 10 μM): 285%
Cell growth potentiation relative to minoxidil at 100 μM (%) ([2]; Compound at 100 μM): 271%

CC1=C(C)CC2(CC(C)(C)Oc3cc(C#N)sc32)SC1 (stereo not drawn) [Compound 50092, 3′,6,6′,7-Tetrahydro-4′,5,5,5′-tetramethylspiro[5H-thieno[3,2-b]pyran-7,2′-2H-thiopyran]-2-carbonitrile]
melting point: 148 to 149 °C
IC50 [1]: ~10 µM
Cell growth potentiation relative to minoxidil at 100 μM (%) ([2]; Compound at 10 μM): 214%
Cell growth potentiation relative to minoxidil at 100 μM (%) ([2]; Compound at 100 μM): 71%

CC1(C)C[C@@]2(SCC[S@+]2[O-])c2sc(C#N)cc2O1 (relative stereo) [Compound 50067, rel-(1S, 2S)-6′,7′-Dihydro-5′,5′-dimethylspiro[1,3-dithiolane-2,7′-5H-thieno[3,2-b]pyran]-2′-carbonitrile-1-oxide]
IC50 [1]: ~100 µM
Cell growth relative to FCS alone (%) ([2]; Compound at 10 μM): 96%
Cell growth relative to FCS alone (%) ([2]; Compound at 100 μM): 69%

6′,7′-Dihyrdro-5′,5′-dimethylspiro[1,3-dithiolane-2,7′-5H-thieno[3,2-b]pyran] [Compound 50063]
IC50 [1]: ~10 µM
Cell growth relative to FCS alone (%) ([2]; Compound at 10 μM): 55%
Cell growth relative to FCS alone (%) ([2]; Compound at 100 μM): 93%

CC1=C(C)CC2(CC(C)(C)Oc3ccsc32)SC1 (stereo not drawn) [Compound 50049, 3′,6,6′,7-Tetrahydro-4′,5,5,5′-tetramethylspiro[5H-thieno[3,2-b]pyran-7,2′-2H-thiopyran]]
melting point: 90 to 92 °C
IC50 [1]: ~10 µM
Cell growth relative to FCS alone (%) ([2]; Compound at 10 μM): 100%
Cell growth relative to FCS alone (%) ([2]; Compound at 100 μM): 50%

CC1(C)CC2(SCCCS2)c2sccc2O1 [Compound 50048, 6′,7′-Dihydro-5′,5′-dimethylspiro[1,3-dithiane-2,7′-5H-thieno[3,2-b]pyran]]
melting point: 121 to 123 °C
IC50 [1]: 2.9 µM

CC1=C(C)C[C@@]2(CC(C)(C)Oc3cc(C#N)sc32)[S@+]([O-])C1 (relative stereo) [Compound 50097, rel-(1′R, 2′S)-3′,6,6′,7-Tetrahydro-4′,5,5′,5-tetramethyl-1′-oxospiro[5H-thieno[3,2-b]pyran-7,2′-2H-thiopyran]-2-carbonitrile]
melting point: 179 to 183 °C
IC50 [1]: ~10 µM
Cell growth potentiation relative to minoxidil at 100 μM (%) ([2]; Compound at 10 μM): 242%
Cell growth potentiation relative to minoxidil at 100 μM (%) ([2]; Compound at 100 μM): 257%

CC1(C)Oc2cc(S(=O)(=O)c3ccccc3)sc2[C@@H](N2CCCC2=O)[C@@H]1O (relative stereo) [Compound 50123, rel-(6S,7S)-6,7-Dihydro-6-hydroxy-5,5-dimethyl-7-(2-oxo-1-pyrrolidinyl)-2-(phenylsulphonyl)-5H-thieno[3,2-b]pyran]
IC50 [1]: 0.026 µM
Cell growth potentiation relative to minoxidil at 100 μM (%) ([2]; Compound at 10 μM): 120%
Cell growth relative to FCS alone (%) ([2]; Compound at 100 μM): 94%

CC1(C)C=C(N2CCCC2=O)c2sc(S(=O)(=O)c3ccccc3)cc2O1 [Compound 50109, 5,5-Dimethyl-7-(2-oxo-1-pyrrolidinyl)-2-(phenylsulphonyl)-5H-thieno[3,2-b]pyran]
IC50 [1]: 0.24 µM
Cell growth potentiation relative to minoxidil at 100 μM (%) ([2]; Compound at 10 μM): 233%
Cell growth potentiation relative to minoxidil at 100 μM (%) ([2]; Compound at 100 μM): 122%
